Measured values as given in patent publication US7550582B2, “Polyamide nucleic acid derivatives and agents, and processes for preparing them” (sanofi-aventis Deutschland GmbH, priority 2000, dated 2009).

Legend:
complementary DNA = test: Determining the melting temperatures (complementary DNA); format: binding; conditions: for Tm (DNA): 140 mM KCl, 10 mM sodium dihydrogen phosphate, 0.1 mM EDTA (pH 7.4), oligomer 0.5 to 1 OD260 per ml; for degree of binding towards complementary DNA and RNA compared with the uncharged PNA (reference substance): melting temperature experiment
Protocol: (§1) The melting temperatures were determined using an HP 8452A diode-array spectrophotometer, an HP 89090A Peltier element and HP Temperature Control Software Rev. B5.1 (from Hewlett Packard). Measurements were taken in 0.5° C./min steps in 140 mM KCl, 10 mM sodium dihydrogen phosphate, 0.1 mM EDTA (pH 7.4) as the buffer. The oligomer concentration was from 0.5 to 1 OD260 per ml.

complementary RNA = test: Determining the melting temperatures (complementary RNA); format: binding; conditions: 140 mM KCl, 10 mM sodium dihydrogen phosphate, 0.1 mM EDTA (pH 7.4); oligomer 0.5 to 1 OD260 per ml
Protocol: as §1

[1] = test system: REH cells (human pre-B leukemia cells, DSM ACC 22); test: Inhibiting cell proliferation; format: cell-based; conditions: 10 μM, after >4 days of incubation
Protocol: The sequence of PNA-6 is directed against the translation start of the Ha-ras mRNA. REH cells (human pre-B leukemia cells, DSM ACC 22) or A549 tumor cells were cultured, at 37° C. and under 5% CO2, in OptiMEM (Gibco BRL) containing 10% fetal calf serum (FCS, GIBCO-BRL). The cell density for the assay was approx. 1×10^6/ml. The PNA-6 (10 μM) was incubated with the cells in 24-well plates. After incubating at 37° C. and under 5% CO2 for 96 hours, the cell density was determined. Mean values for the cell density were determined from 3 individual wells at a given PNA concentration. […] After >4 days of incubation, the inhibition brought about by PNA-6 was greater than that brought about by a corresponding phosphorothioate oligonucleotide.

COS cells = test: Determining cell uptake after fluorescence labeling; format: cell-based; conditions: PNA solution 10 μM, 37° C., examined after 2, 4 and 16 hours
Protocol: COS cells were allowed to grow to confluence in Dulbecco's MEM, which was supplemented with 10% FCS, in 5 cm Petri dishes. The cells were washed twice with serum-free DMEM. An area of approx. 1 cm^2 was scratched out in the middle of the Petri dish using a sterile needle. The PNA solution (10 μM) under investigation was applied in this area. The dish was incubated at 37° C. under a CO2 atmosphere. After 2, 4 and 16 hours, the cells were examined by fluorescence microscopy. For this, the cells were washed four times with serum-free DMEM, covered with a cover slip, and evaluated under the fluorescence microscope or by phase contrast. PNA-5 and PNA-6 were examined by fluorescence microscopy.

| degree of binding towards complementary DNA and RNA compared with the uncharged PNA (reference substance) (complementary DNA) | Substance | Tm (DNA) (complementary DNA) [°C] | Tm (RNA) (complementary RNA) [°C] | inhibition of proliferation compared with a corresponding phosphorothioate oligonucleotide [1] | cell uptake by fluorescence microscopy, compared with the PNA with no hexadecyl radical (COS cells) |
| --- | --- | --- | --- | --- | --- |
| – | Ac-HN-tat tcc gtc at-hex [Reference, reference compound] | 41.9 | 56.6 | – | – |
| equally good or better degree of binding | C16-p-t(oeg) at tcc gtc at-aminohexyl-p-fluorescein [PNA-6] | 44.1 | 56.9 | greater | taken up more efficiently |
| equally good or better degree of binding | p-t(oeg) at tcc gtc at-aminohexyl-p-fluorescein [PNA-5] | 41.8 | 56.9 | – | – |
